Literature values, collected in patent US5607940A (priority 1994, dated 1997).

Experiments:
[1] = silver anode; listed as MHCl, hydrochloride
[2] = in vivo

| Compound | utilization of morphine [1] | time to clinically effective blood levels [2] [min] |
| --- | --- | --- |
| CN1CC[C@]23c4c5ccc(O)c4O[C@H]2[C@@H](O)C=C[C@H]3[C@H]1C5.Cl [morphine hydrochloride] | about 10% |  |
| CN1CC[C@]23c4c5ccc(O)c4O[C@H]2[C@@H](O)C=C[C@H]3[C@H]1C5 [morphine] |  | 15 to 20 |
